Laboratory results taken from patent US11214803B2, “Modulators of YAP1 expression” (Ionis Pharmaceuticals, Inc., priority 2019, dated 2022).
Strand notation (5' to 3'): a small letter for the sugar, then the base; units joined by * are phosphorothioate-linked, units joined directly phosphodiester-linked; [ ] holds rarer units or linkages, { } end groups; capitals alone tell only the bases. k = constrained ethyl (cEt); [5mC] = 5-methylcytosine; d = 2'-deoxy (DNA)

test system: Yap1 mRNA; assay: Antisense inhibition of human Yap1 in A-431 cells by cEt gapmers, single dose (Example 2, RTS4814); assay type: cell-based; details: A-431 cells, 5,000 cells per well, free uptake, 2,000 nM modified oligonucleotide, approx. 48 hours, RTS4814, normalized to RIBOGREEN; Table 4; asterisk (*) = targets amplicon region of primer probe set
Method in brief: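 Free uptake, 2,000 nM, ~48 h, A-431 at 5,000 cells/well. Readout: RT-qPCR (RTS4814), RIBOGREEN-normalized, % UTC. 16-mer 3-10-3 cEt gapmers, full PS backbone, all C as 5-methylcytosine.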

First: 716523 (antisense k[5mC]*kA*kA*dA*dT*dT*dA*dA*dA*dG*dT*dT*dG*kA*kG*kG) [Compound 716523]
Second: 716382 (kA*kG*k[5mC]*dA*dT*dG*dG*d[5mC]*d[5mC]*dT*dT*d[5mC]*d[5mC]*kT*kG*kG; antisense) [Compound 716382]
The “YAP1 (% UTC)” value of the first is lower: 37 % UTC for the first, 73 % UTC for the second.

For “716397 (kG*kG*k[5mC]*d[5mC]*dT*d[5mC]*dA*d[5mC]*d[5mC]*dT*dG*d[5mC]*d[5mC]*kG*kA*kA; antisense) [Compound 716397]”, the “YAP1 (% UTC)” value was 88 % UTC.

same assay, conditions: Table 5; A-431 cells, 5,000 cells per well, free uptake, 2,000 nM modified oligonucleotide, approx. 48 hours; RTS4814; normalized to RIBOGREEN; Yap1 mRNA relative to untreated control cells

First: 716419 (kT*kT*kT*d[5mC]*d[5mC]*dG*dG*dT*dG*d[5mC]*dA*dT*dG*kT*kG*kT; antisense) [Compound 716419]
Second: 716485 (kA*k[5mC]*kT*dA*d[5mC]*d[5mC]*dA*dA*dT*dA*dT*dA*d[5mC]*kA*kT*kT; antisense) [Compound 716485]
The “YAP1 (% UTC)” value of the first is lower: 36 % UTC for the first, 84 % UTC for the second.

same assay, conditions: Table 6; A-431 cells, 5,000 cells per well, free uptake, 2,000 nM modified oligonucleotide, approx. 48 hours; RTS4814; normalized to RIBOGREEN; Yap1 mRNA relative to untreated control cells

Compared with “716525 (antisense k[5mC]*kA*k[5mC]*dA*dG*dT*dA*d[5mC]*dT*dG*d[5mC]*dT*dA*k[5mC]*kA*kA) [Compound 716525]”, “716522 (antisense kG*kT*kG*dA*d[5mC]*dT*dG*dA*dA*dA*d[5mC]*dT*d[5mC]*kT*kA*kG) [Compound 716522]” is lower in “YAP1 (% UTC)” value: 64 % UTC for the first, 47 % UTC for the second.

“716405 (kT*kG*kT*dT*dA*dA*dG*dG*dA*dA*dA*dG*dG*kA*kT*k[5mC]; antisense) [Compound 716405]” was tested, and the “YAP1 (% UTC)” value was 149 % UTC.

same assay, conditions: Table 18; A-431 cells, 5,000 cells per well, free uptake, 2,000 nM modified oligonucleotide, approx. 48 hours; RTS4814; normalized to RIBOGREEN; Yap1 mRNA as percent of untreated control

Compared with “1074116 (antisense kG*kA*kG*dA*dA*d[5mC]*dT*dT*dT*dT*dT*d[5mC]*d[5mC]*k[5mC]*kT*k[5mC]) [Compound 1074116]”, “1076484 (antisense kG*kA*kA*dA*d[5mC]*dG*dG*dG*dA*dA*dA*dT*d[5mC]*kA*kT*kA) [Compound 1076484]” is lower in “YAP1 (% UTC)” value: 112 % UTC for the first, 10 % UTC for the second.

First: 1075844 (kT*kA*kT*dT*dA*dA*dA*dT*dA*dA*dG*dA*dG*k[5mC]*kT*k[5mC]; antisense) [Compound 1075844]
Second: 1075364 (k[5mC]*kG*kA*dA*dA*dA*dT*dA*dG*dT*dT*d[5mC]*dT*k[5mC]*kA*kA; antisense) [Compound 1075364]
The “YAP1 (% UTC)” value of the first is higher: 84 % UTC for the first, 59 % UTC for the second.

Going from “1075012 (antisense k[5mC]*kT*kA*dT*dT*dG*dG*dA*dA*dT*dG*dT*dT*kA*kA*k[5mC]) [Compound 1075012]” to “1075972 (kT*k[5mC]*kA*d[5mC]*dA*dA*dG*dG*dG*d[5mC]*dT*dA*dA*kT*kT*k[5mC]; antisense) [Compound 1075972]”, the “YAP1 (% UTC)” value falls from 119 % UTC to 22 % UTC.

same assay, conditions: Table 19; A-431 cells, 5,000 cells per well, free uptake, 2,000 nM modified oligonucleotide, approx. 48 hours; RTS4814; normalized to RIBOGREEN; Yap1 mRNA as percent of untreated control

First: 1074661 (antisense kG*kA*kA*dT*dT*dT*d[5mC]*dA*dT*dT*dA*d[5mC]*dT*kA*k[5mC]*kT) [Compound 1074661]
Second: 1075301 (k[5mC]*kA*kG*d[5mC]*dA*dA*d[5mC]*dA*d[5mC]*d[5mC]*dT*dA*dA*kG*kG*kA; antisense) [Compound 1075301]
The “YAP1 (% UTC)” value of the first is lower: 36 % UTC for the first, 92 % UTC for the second.

First: 1075813 (kA*k[5mC]*kT*dA*dA*dT*dA*dT*dG*d[5mC]*dA*dA*d[5mC]*kT*k[5mC]*kT; antisense) [Compound 1075813]
Second: 1074117 (antisense kG*k[5mC]*kG*d[5mC]*d[5mC]*dT*dG*dA*dG*dA*dA*d[5mC]*dT*kT*kT*kT) [Compound 1074117]
The “YAP1 (% UTC)” value of the first is lower: 4 % UTC for the first, 87 % UTC for the second.

same assay, conditions: Table 20; Yap1 mRNA, percent of untreated control; 3-10-3 cEt gapmers targeting SEQ ID NO.: 1 and 2

First: 1075078 (antisense k[5mC]*kA*kA*d[5mC]*dT*dA*dT*dA*d[5mC]*dG*dG*dT*d[5mC]*k[5mC]*kA*kT) [Compound 1075078]
Second: 1074534 (antisense kT*kA*kA*dT*dA*dG*d[5mC]*dT*d[5mC]*dT*dT*dT*d[5mC]*kT*kA*kG) [Compound 1074534]
The “YAP1 (% UTC)” value of the first is lower: 3 % UTC for the first, 88 % UTC for the second.

same assay, conditions: Table 21; Yap1 mRNA, percent of untreated control; 3-10-3 cEt gapmers targeting SEQ ID NO.: 1 and 2

First: 1074983 (antisense k[5mC]*kA*k[5mC]*d[5mC]*dT*dT*dT*dT*dA*dT*dT*dG*d[5mC]*k[5mC]*kA*kG) [Compound 1074983]
Second: 1074759 (k[5mC]*kA*kA*d[5mC]*d[5mC]*dA*dA*dG*dA*dA*dG*d[5mC]*dA*kG*kT*kT; antisense) [Compound 1074759]
The “YAP1 (% UTC)” value of the first is lower: 11 % UTC for the first, 43 % UTC for the second.

With “1075559 (kG*kA*kT*dA*dT*dT*dA*dA*dG*dG*dT*dG*dG*k[5mC]*kT*kT; antisense) [Compound 1075559]” the “YAP1 (% UTC)” value was 24 % UTC.

same assay, conditions: Table 22; Yap1 mRNA as percent of untreated control; 3-10-3 cEt gapmers; single dose

Compared with “1074536 (antisense kA*kG*kT*dA*dA*dT*dA*dG*d[5mC]*dT*d[5mC]*dT*dT*kT*k[5mC]*kT) [Compound 1074536]”, “1075496 (antisense kT*kT*kA*dT*dA*dT*dA*dA*dT*dG*d[5mC]*dA*dG*kG*k[5mC]*kT) [Compound 1075496]” is higher in “YAP1 (% UTC)” value: 6 % UTC for the first, 22 % UTC for the second.

same assay, conditions: Table 23; Yap1 mRNA as percent of untreated control; 3-10-3 cEt gapmers; single dose

Going from “1075785 (k[5mC]*kA*kT*dT*dT*dT*dA*dT*dA*dG*dG*dG*d[5mC]*k[5mC]*kA*kT; antisense) [Compound 1075785]” to “1074121 (antisense kT*kG*k[5mC]*dG*dA*dG*dG*d[5mC]*dA*d[5mC]*dT*d[5mC]*dG*kG*kA*k[5mC]) [Compound 1074121]”, the “YAP1 (% UTC)” value rises from 2 % UTC to 87 % UTC.

Compared with “1074217 (antisense kG*kG*kA*dT*dT*dT*dG*dG*dG*d[5mC]*dT*d[5mC]*d[5mC]*kG*kG*k[5mC]) [Compound 1074217]”, “1076521 (antisense kA*k[5mC]*kT*dA*dA*dA*dG*dG*dA*dG*dT*d[5mC]*dA*kT*kG*kA) [Compound 1076521]” is lower in “YAP1 (% UTC)” value: 74 % UTC for the first, 67 % UTC for the second.

same assay, conditions: Table 24; Yap1 mRNA as percent of untreated control; 3-10-3 cEt gapmers targeting SEQ ID NO.: 1, and 2

Compared with “1075754 (k[5mC]*kT*kT*dA*dA*dA*dT*dG*dG*d[5mC]*dA*d[5mC]*dA*kG*kT*kT; antisense) [Compound 1075754]”, “1075690 (k[5mC]*kG*kT*dT*dA*dA*d[5mC]*dA*dA*d[5mC]*dT*dA*dT*kA*k[5mC]*kA; antisense) [Compound 1075690]” is higher in “YAP1 (% UTC)” value: 20 % UTC for the first, 33 % UTC for the second.

same assay, conditions: Table 25; Yap1 mRNA as percent of untreated control; 3-10-3 cEt gapmers targeting SEQ ID NO.: 1, and 2

Compared with “1075275 (antisense k[5mC]*kT*kA*dG*dA*dA*dA*dG*dG*d[5mC]*d[5mC]*dA*dT*kG*kT*kA) [Compound 1075275]”, “1074635 (antisense kT*k[5mC]*k[5mC]*d[5mC]*dA*dA*dG*d[5mC]*dT*dG*dA*dG*dG*k[5mC]*kT*kT) [Compound 1074635]” is lower in “YAP1 (% UTC)” value: 76 % UTC for the first, 31 % UTC for the second.

“1075499 (kG*k[5mC]*kT*dA*dA*dA*dA*dA*dA*dT*dG*dA*dG*kT*kA*kG; antisense) [Compound 1075499]” was tested, and the “YAP1 (% UTC)” value was 99 % UTC.

same assay, conditions: Table 32; Yap1 mRNA, percent of untreated control; 3-10-3 cEt gapmers targeting SEQ ID NO.: 1, and 2

First: 1075634 (antisense kA*kG*kA*d[5mC]*dT*dA*dT*dA*dT*dT*dG*dG*d[5mC]*kT*k[5mC]*k[5mC]) [compound 1075634]
Second: 1074546 (k[5mC]*kA*k[5mC]*dT*d[5mC]*d[5mC]*d[5mC]*d[5mC]*dT*dA*dG*dG*d[5mC]*kA*k[5mC]*kT; antisense) [compound 1074546]
The “YAP1 (% UTC)” value of the first is higher: 65 % UTC for the first, 33 % UTC for the second.

In the case of “1074386 (k[5mC]*kA*kG*dG*dA*dA*dT*dG*dG*d[5mC]*dT*dT*d[5mC]*kA*kA*kG; antisense) [compound 1074386]”, the “YAP1 (% UTC)” value is reported as 39 % UTC.

same assay, conditions: Table 33; Yap1 mRNA, percent of untreated control; 3-10-3 cEt gapmers targeting SEQ ID NO.: 1, and 2

“1074707 (antisense kT*kT*kT*dA*dA*dT*dG*dG*d[5mC]*dA*dG*d[5mC]*dA*k[5mC]*kG*kG) [compound 1074707]” was tested, and the “YAP1 (% UTC)” value was 36 % UTC.

same assay, conditions: Yap1 mRNA as percent of untreated control; A-431 cells; 3-10-3 cEt gapmers targeting SEQ ID NO.: 1, and 2; Table 30

First: 1074544 (k[5mC]*kT*k[5mC]*d[5mC]*d[5mC]*d[5mC]*dT*dA*dG*dG*d[5mC]*dA*d[5mC]*kT*kA*kT; antisense) [compound 1074544]
Second: 1076048 (kG*kA*kT*dT*dA*dA*dA*dG*dG*d[5mC]*dT*dG*dG*kA*kA*kG; antisense) [compound 1076048]
The “YAP1 (% UTC)” value of the first is higher: 34 % UTC for the first, 32 % UTC for the second.

same assay, conditions: Yap1 mRNA as percent of untreated control; A-431 cells; 3-10-3 cEt gapmers targeting SEQ ID NO.: 1, and 2; Table 31

Going from “1075025 (antisense kA*k[5mC]*kT*dT*dA*dA*dG*dA*dA*d[5mC]*dT*d[5mC]*dA*k[5mC]*kA*k[5mC]) [compound 1075025]” to “1075985 (kA*kT*kA*dT*d[5mC]*dG*dA*dA*dA*dA*dG*d[5mC]*dA*kA*kA*k[5mC]; antisense) [compound 1075985]”, the “YAP1 (% UTC)” value rises from 58 % UTC to 82 % UTC.

Going from “1074705 (antisense kG*k[5mC]*kA*d[5mC]*dG*dG*dT*dG*dT*dA*dA*dG*dA*k[5mC]*kA*kA) [compound 1074705]” to “1074481 (kA*kA*kT*dA*dT*dG*dG*dT*d[5mC]*dA*dT*dT*dT*kG*k[5mC]*k[5mC]; antisense) [compound 1074481]”, the “YAP1 (% UTC)” value falls from 20 % UTC to 14 % UTC.

For “1074929 (antisense kT*kA*kT*dA*d[5mC]*dA*dA*d[5mC]*dA*dG*dG*d[5mC]*d[5mC]*kT*kG*k[5mC]) [compound 1074929]”, the “YAP1 (% UTC)” value was 79 % UTC.
